{"source": "patent US10123983B2", "about": "“DNA methyltransferases for the treatment and prevention of arthritis” (Washington University, priority 2015, dated 2018)", "key": {"[1]": {"system": "Dnmt3b LOF chondrocytes", "experiment": "Vigabatrin treatment of Dnmt3b LOF primary articular chondrocytes, hypertrophic marker expression", "assay_type": "cell-based, mouse", "protocol": "FIG. 23A, FIG. 23B and FIG. 23C depict ablation of Dnmt3b in articular chondrocytes (ACs). Primary Acs from Dnmt3b^f/f mice were infected with Ad5-Cre or Ad-GFP for 48 hr and cultured for a further 48 hr with or without vigabatrin (500μM).\nTo determine if this effect is dependent upon increased Abat expression, experiments were performed using vigabatrin to inhibit Abat activity in articular chondrocytes. […] Work will comprehensively investigate the role of Abat in controlling both metabolism and hypertrophic/catabolic responses in articular chondrocytes, and define its role in the development of OA."}, "[2]": {"settings": "rodents, within the proposed dosage range; literature study (99); cited from earlier work"}, "[3]": {"system": "primary articular chondrocytes", "experiment": "Cytokine-induced chondrocyte hypertrophy measured by ALP activity", "assay_type": "cell-based, mouse", "settings": "cytokine treatment", "protocol": "FIG. 24 depicts Dnmt3b gain-of-function attenuates IL-1β-induced chondrocyte hypertrophy. Primary ACs from 2 mo Dnmt3b GOF mice were treated with vehicle or doxycycline (10 μg/ml) for 24 hr. Medium without or with IL-1β (1 ng/ml) was added for 48 hr and ALP staining performed using NBT/BCIP substrate solution.\nHypertrophic characteristics, as measured by ALP activity, were induced in primary articular chondrocytes by treatment with either IL-1β or TNF-α. Dnmt3b GOF was induced by transfecting a plasmid expressing full-length Flag-tagged Dnmt3b cDNA. Western blot confirmed protein over-expression (data not shown). […] Similar results were shown in the TNF-α experiment (results not shown)"}, "[4]": {"system": "WT murine PACs", "experiment": "Mitochondria stress test (Seahorse XF Extracellular Flux Analyzer) after succinate treatment", "assay_type": "cell-based, mouse", "settings": "1 mM diethyl succinate, 48 h", "protocol": "FIG. 13A, FIG. 13B, FIG. 13C, FIG. 13D, FIG. 13E, FIG. 13F, FIG. 13G, FIG. 13H, FIG. 13I, FIG. 13J, FIG. 13K, FIG. 13L, FIG. 13M and FIG. 13N depict graphs showing mitochondria function and cellular homeostasis in Dnmt3b LOF chondrocytes. Primary articular chondrocytes were isolated from 2 mo Dnmt3b^f/f mice and infected with Ad5-Cre (Dnmt3b LOF) or Ad5-GFP (Ctrl) for 48 h. (FIG. 13A, FIG. 13B, FIG. 13C) Mitochondrial respiration was measured by the Seahorse XF Extracellular Flux Analyzer. Basal respiration and maximal respiration, as measured by the oxygen consumption rate (OCR) are shown. (FIG. 13D, FIG. 13E, FIG. 13F) TCA metabolite (succinate, fumarate) and NADH analysis by HPLC-MS. (FIG. 13G, FIG. 13H, FIG. 13I) Mitochondrial metabolism analysis was measured in 2 mo WT cells treated with either 1 mM diethyl succinate or vehicle for 48 h by the Seahorse XF Extracellular Flux Analyzer. (FIG. 13J) Chondrocyte gene expression in response to succinate treatment was analyzed by qPCR. (FIG. 13K, FIG. 13L, FIG. 13M) Mitochondrial respiration analysis in BMP-2-treated 2 mo WT chondrocytes in the presence or absence antimycin A+rotenone for 48 h. […]\nMetabolite analysis and mitochondria stress test. […] Metabolites were analyzed by LC-MS/MS as previously described^60. […] At the end of the assays, protein concentrations were measured for normalization."}, "[5]": {"system": "Primary articular chondrocytes from 2 mo WT mice", "experiment": "Succinate concentration assay", "assay_type": "cell-based, mouse", "settings": "1 mM diethyl succinate, 48 h", "protocol": "FIG. 15 depicts a graph showing cellular succinate levels in murine chondrocytes. Primary articular chondrocytes from 2 mo WT mice were treated with 1 mM diethyl succinate or vehicle for 48 h.\nSuccinate concentration assay. Primary articular chondrocytes isolated from 2 mo WT mice were treated with vehicle or diethylsuccinate (1 mM) for 48 h. Intracellular succinate concentration was measured using the succinate colorimetric assay kit following the manufacturer's instruction (Sigma, #MAK184-1KT)."}, "[6]": {"system": "WT murine PACs", "experiment": "Chondrocyte gene expression in response to succinate treatment (qPCR)", "assay_type": "cell-based, mouse", "protocol": "FIG. 13A, FIG. 13B, FIG. 13C, FIG. 13D, FIG. 13E, FIG. 13F, FIG. 13G, FIG. 13H, FIG. 13I, FIG. 13J, FIG. 13K, FIG. 13L, FIG. 13M and FIG. 13N depict graphs showing mitochondria function and cellular homeostasis in Dnmt3b LOF chondrocytes. Primary articular chondrocytes were isolated from 2 mo Dnmt3b^f/f mice and infected with Ad5-Cre (Dnmt3b LOF) or Ad5-GFP (Ctrl) for 48 h. (FIG. 13A, FIG. 13B, FIG. 13C) Mitochondrial respiration was measured by the Seahorse XF Extracellular Flux Analyzer. Basal respiration and maximal respiration, as measured by the oxygen consumption rate (OCR) are shown. (FIG. 13D, FIG. 13E, FIG. 13F) TCA metabolite (succinate, fumarate) and NADH analysis by HPLC-MS. (FIG. 13G, FIG. 13H, FIG. 13I) Mitochondrial metabolism analysis was measured in 2 mo WT cells treated with either 1 mM diethyl succinate or vehicle for 48 h by the Seahorse XF Extracellular Flux Analyzer. (FIG. 13J) Chondrocyte gene expression in response to succinate treatment was analyzed by qPCR. (FIG. 13K, FIG. 13L, FIG. 13M) Mitochondrial respiration analysis in BMP-2-treated 2 mo WT chondrocytes in the presence or absence antimycin A+rotenone for 48 h. (FIG. 13N) Analysis of chondrocyte gene expression in response to BMP-2 treatment+/−antimycin A+rotentone (0.1 μM).\nReal-time PCR and western blot. RNA was isolated from ATDC-5 chondrocytes or primary articular chondrocytes using RNeasy Mini kit (Qiagen). cDNA synthesis and real-time RT-PCR was performed according to manufacturer's instructions. Western blot analyses were conducted on the protein of lysates from either ATDC-5 cells or primary (murine or human) articular chondrocytes. The following primary antibodies were used: pSmad1/5 (Cell Signaling technology Inc., 1:500), pSmad2 (Cell Signaling technology Inc., 1:1000), Smad1/5/8 (Cell Signaling technology Inc., 1:1000), Smad2 (Cell Signaling technology Inc., 1:1000), DNMT3A (LSBio, 1:1000), DNMT3B (LSBio, 1:1000), FLAG (Life technology, 1:1000) and β-actin (Sigma, 1:2000)."}, "[7]": {"system": "murine WT primary articular chondrocytes", "experiment": "IL-1β induction of murine WT primary articular chondrocytes, Dnmt3b expression", "assay_type": "cell-based, mouse", "settings": "IL-1β induction 48 h", "text": "(§1) FIG. 4A, FIG. 4B, FIG. 4C, FIG. 4D, FIG. 4E and FIG. 4F depict sequences, graphs and a nucleic acid gel and immunoblot showing IL-1β regulation of Dnmt3b is mediated in part by NF-κB. (FIG. 4A) Sequence alignment and conservation of an NF-κB binding site (red) in the promoter region of the Dnmt3b gene of different species. Mouse—SEQ ID NO:1; Human—SEQ ID NO:2; Dog; SEQ ID NO:3; Horse—SEQ ID NO:4. […] Reduced luciferase activity is attenuated when ATDC-5 cells were transfected with a reporter plasmid containing a mutated NF-κB binding site ([…]; SEQ ID NO:5). […] (FIG. 4E, FIG. 4F) Dnmt3b mRNA and protein levels were reduced in murine WT primary articular chondrocytes (extracted from 3 mo murine knee joints) following IL-1β induction (48 h).\nReal-time PCR and western blot. RNA was isolated from ATDC-5 chondrocytes or primary articular chondrocytes using RNeasy Mini kit (Qiagen). cDNA synthesis and real-time RT-PCR was performed according to manufacturer's instructions. Western blot analyses were conducted on the protein of lysates from either ATDC-5 cells or primary (murine or human) articular chondrocytes. […]"}, "[8]": {"system": "human primary articular chondrocytes", "experiment": "IL-1β treatment of human primary articular chondrocytes, gene and protein expression", "assay_type": "cell-based", "text": "FIG. 1A, FIG. 1B, FIG. 1C, FIG. 1D, FIG. 1E, FIG. 1F, FIG. 1G, FIG. 1H, FIG. 1I, FIG. 1J, FIG. 1K, FIG. 1L and FIG. 1M depict images, graphs and an immunoblot showing Dnmt3b expression in murine and human knee joint cartilage. (FIG. 1A, FIG. 1B) Dnmt3a is not expressed in chondrocytes from 3 mo WT articular cartilage [(FIG. 1B) represents a magnified image of the boxed region in (FIG. 1A)]. (FIG. 1C) Dnmt3a expression in pancreas tissue (positive control). (FIG. 1D, FIG. 1E, FIG. 1F) Robust expression of Dnmt3b in chondrocytes of 3 mo WT articular cartilage and lower expression in underlying growth plate cartilage; [(FIG. 1E) represents a magnified image of the dashed boxed area of articular cartilage in (FIG. 1D); (FIG. 1F) represents a magnified image of the solid boxed area of growth plate cartilage in (FIG. 1D)]. Dnmt3b expression is also shown in: (FIG. 1G) 3 mo versus 27 mo WT murine knee articular cartilage; (FIG. 1H) 14 wk old murine articular cartilage following MLI surgery compared to cartilage from sham control knees; (FIG. 1I) 14 wk murine articular cartilage in mice fed a high fat diet (HFD) compared to controls (Ctrl) fed a normal diet. (FIG. 1J) Two representative images showing DNMT3B expression in human healthy articular cartilage or osteoarthritic cartilage tissue sections. (FIG. 1K) Reduced DNMT3B expression in human primary OA chondrocytes compared to healthy chondrocytes). […] All scale bars, 100 μm.\nFIG. 3A and FIG. 3B depict graphs showing altered anabolic and catabolic gene expression in IL-1β-treated human primary chondrocytes. Reduced COL2A1 (FIG. 3A) and increased MMP13 (FIG. 3B) expression following IL-1β treatment (48 h) of human primary articular chondrocytes isolated from total knee replacement surgeries.\nFull thickness sections of human articular cartilage were removed from the femoral condyles and tibial plateaus of specimens obtained following total knee replacement surgery, diced into 2 mm cubes and digested in sterile spinner flasks for 90 min at 37° C. in pronase digestion buffer [DMEM/F12 (Gibco); 5% FBS (Atlanta Biologicals), 2% penicillin/streptomycin (Gibco) and 0.4% pronase (Roche)]. Following washes in HBSS (Gibco), tissue was further digested in collagenase digestion buffer at 37° C. [DMEM/F12; 5% FBS; 2% penicillin/streptomycin; 0.035% collagenase P (Roche)] for 14-16 hr. Cells were collected, filtered through 70 μm cell strainers (VWR) and plated at a density of 100,000 cells/cm^2. After 24 hr, chondrocytes were treated with IL-1β (10 ng/ml; Gibco) for 48 hr. Total RNA was collected using the Total RNA prep kit (Norgen Biotek) and cDNA was synthesized using Superscript RT II (Life Technologies).\nReal-time PCR and western blot. […]"}, "[9]": {"system": "Dnmt3b promoter", "experiment": "Dnmt3b promoter luciferase assay", "assay_type": "cell-based, mouse", "settings": "ATDC-5 cells, IL-1β 1 ng/ml, 24 h, versus untreated control", "text": "as §1\nDnmt3b promoter luciferase assay. ATDC-5 cells were transfected with a pGL4 luciferase plasmid containing cDNA encoding 1 kb of the murine Dnmt3b promoter using X-tremeGENE transfection reagents (Roche, #06366236001). A Dnmt3b promoter construct containing mutations in the predicted NFκB binding site was also transfected into an additional set of ATDC-5 cells. All transfected cells were then treated with IL-1β (1 ng/ml) for 24 h before performing the luciferase assay."}, "[10]": {"settings": "Abat inhibition with vigabatrin"}}}
{"compound": "C=CC(N)CCC(=O)O", "note": "(stereo not drawn) [vigabatrin]", "values": [{"measurement": "Col10a1 expression in Dnmt3b LOF chondrocytes", "setting": "[1]; [10]", "value": "attenuates the increased expression"}, {"measurement": "Mmp13 expression in Dnmt3b LOF chondrocytes", "setting": "[1]; [10]", "value": "attenuates the increased expression"}, {"measurement": "Runx2 expression in Dnmt3b LOF chondrocytes", "setting": "[1]; [10]", "value": "attenuates the increased expression"}, {"measurement": "catabolic responses in chondrocytes", "setting": "[1]; in vitro administration", "value": "can block catabolic responses"}, {"measurement": "hypertrophic gene expression induced by Dnmt3b LOF", "setting": "[1]; vigabatrin 500μM, 48 hr, primary ACs from Dnmt3b f/f mice infected with Ad5-Cre", "value": "partially attenuated"}, {"measurement": "side effects", "setting": "[2]", "value": "did not report any side effects"}]}
{"compound": "TNF-α", "values": [{"measurement": "hypertrophic characteristics, as measured by ALP activity", "setting": "[3]", "value": "induced"}]}
{"compound": "CCOC(=O)CCC(=O)OCC", "note": "[diethyl succinate]", "values": [{"measurement": "basal respiration (OCR)", "setting": "[4]", "value": "increased"}, {"measurement": "maximal respiration (OCR)", "setting": "[4]", "value": "increased"}, {"measurement": "cellular succinate levels", "setting": "[5]", "value": "Increased levels of cellular succinate"}, {"measurement": "Col2a1 expression", "setting": "[6]", "value": "decreased"}, {"measurement": "Mmp13 expression", "setting": "[6]", "value": "increase"}, {"measurement": "Runx2 expression", "setting": "[6]", "value": "increase"}]}
{"compound": "IL-1β: pro-inflammatory cytokine", "values": [{"measurement": "Dnmt3b mRNA level", "setting": "[7]", "value": "reduced"}, {"measurement": "Dnmt3b protein level", "setting": "[7]", "value": "reduced"}, {"measurement": "DNMT3B mRNA expression", "setting": "[8]; IL-1β 10 ng/ml, 48 hr", "value": "decreased"}, {"measurement": "DNMT3B protein expression", "setting": "[8]; IL-1β 10 ng/ml, 48 hr", "value": "decreased"}, {"measurement": "COL2A1 expression", "setting": "[8]; IL-1β treatment 48 h", "value": "Reduced"}, {"measurement": "MMP13 expression", "setting": "[8]; IL-1β treatment 48 h", "value": "increased"}, {"measurement": "hypertrophic characteristics, as measured by ALP activity", "setting": "[3]", "value": "induced"}, {"measurement": "luciferase expression of Dnmt3b promoter reporter", "setting": "[9]", "value": "Reduced luciferase expression"}]}
